From ChEMBL document CHEMBL1201862, “PubChem BioAssay data set” (2004)
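Exposure lasted 48 hours, with cells grown in 96-well plates and compounds tested at five concentrations. Abbreviation: GI50, concentration required for 50% inhibition of growth.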 Activity calls are given as the source filed them. Cut-off read from the data, not from the text of the source: active = GI50 up to about 1.1 µM and inactive = higher.

Experiments:
Test in all cases: NCI-60 cell line screen, 48 h
LOX IMVI = tested on: LOX IMVI
HCC 2998 = tested on: HCC 2998
HOP-62 = tested on: HOP-62
EKVX = tested on: EKVX
KM12 = tested on: KM12
SK-MEL-28 = tested on: SK-MEL-28
SR = tested on: SR
SNB-75 = tested on: SNB-75
OVCAR-3 = tested on: OVCAR-3
KM-20L2 = tested on: KM-20L2
DLD-1 = tested on: DLD-1
SW-620 = tested on: SW-620
OVCAR-4 = tested on: OVCAR-4
COLO 205 = tested on: COLO 205
SNB-19 = tested on: SNB-19
SNB-78 = tested on: SNB-78
SF-268 = tested on: SF-268
MOLT-4 = tested on: MOLT-4
LXFL 529 = tested on: LXFL 529
NCI-H460 = tested on: NCI-H460
OVCAR-8 = tested on: OVCAR-8
SK-MEL-2 = tested on: SK-MEL-2
HCT-116 = tested on: HCT-116
SN12C = tested on: SN12C
A549 = tested on: A549
SF-539 = tested on: SF-539
CCRF-CEM = tested on: CCRF-CEM
OVCAR-5 = tested on: OVCAR-5
TK-10 = tested on: TK-10
NCI-H23 = tested on: NCI-H23
DMS-273 = tested on: DMS-273
786-0 = tested on: 786-0
NCI-H522 = tested on: NCI-H522
HOP-18 = tested on: HOP-18
CAKI-1 = tested on: CAKI-1
UACC-62 = tested on: UACC-62
A498 = tested on: A498
Malme-3M = tested on: Malme-3M
DMS-114 = tested on: DMS-114
UACC-257 = tested on: UACC-257
SK-MEL-5 = tested on: SK-MEL-5
SF-295 = tested on: SF-295
M19-MEL = tested on: M19-MEL
IGROV-1 = tested on: IGROV-1
M14 = tested on: M14
HCT-15 = tested on: HCT-15
U-251 = tested on: U-251
SK-OV-3 = tested on: SK-OV-3
ACHN = tested on: ACHN
UO-31 = tested on: UO-31
XF498 = tested on: XF498
RXF 393 = tested on: RXF 393
NCI-H226 = tested on: NCI-H226
K562 = tested on: K562
RXF 631 = tested on: RXF 631
HL-60 = tested on: HL-60
RPMI-8226 = tested on: RPMI-8226
HOP-92 = tested on: HOP-92
HT-29 = tested on: HT-29

With `CN(C)C(=S)/N=c1\ssc(=S)n1Cc1ccncc1` as the compound, how does the GI50 (LOX IMVI) read?
The GI50 was 19.8 µM (inactive).

What about the GI50 (HCC 2998) of the same compound?
The GI50 was 21.1 µM (inactive).

And the GI50 (HOP-62)?
Its GI50 is 24.9 µM (inactive).

And the GI50 (EKVX)?
The GI50 was 22.8 µM (inactive).

What about the GI50 (KM12) of the same compound?
Its GI50 is 4.79 µM (inactive).

What about the GI50 (SK-MEL-28) of the same compound?
The GI50 was 35.1 µM (inactive).

What about the GI50 (SR) of the same compound?
The GI50 was 6.28 µM (inactive).

What about the GI50 (SNB-75) of the same compound?
Its GI50 is 13.6 µM (inactive).

What about the GI50 (OVCAR-3) of the same compound?
The GI50 was 13.3 µM (inactive).

What about the GI50 (KM-20L2) of the same compound?
The GI50 was 32.9 µM (inactive).

What about the GI50 (DLD-1) of the same compound?
The GI50 was 16 µM (inactive).

What about the GI50 (SW-620) of the same compound?
Its GI50 is 16.5 µM (inactive).

What about the GI50 (OVCAR-4) of the same compound?
The GI50 was 20 µM (inactive).

And the GI50 (COLO 205)?
Its GI50 is > 100 µM (inactive).

And the GI50 (SNB-19)?
The GI50 was 29.2 µM (inactive).

What about the GI50 (SNB-78) of the same compound?
The GI50 was > 100 µM (inactive).

And the GI50 (SF-268)?
Its GI50 is 24.3 µM (inactive).

And the GI50 (MOLT-4)?
The GI50 was 14 µM (inactive).

What about the GI50 (LXFL 529) of the same compound?
The GI50 was 16.3 µM (inactive).

What about the GI50 (NCI-H460) of the same compound?
Its GI50 is 13.8 µM (inactive).

And the GI50 (OVCAR-8)?
The GI50 was 23.1 µM (inactive).

And the GI50 (SK-MEL-2)?
Its GI50 is 17.2 µM (inactive).

And the GI50 (HCT-116)?
The GI50 was 18.3 µM (inactive).

What about the GI50 (SN12C) of the same compound?
Its GI50 is > 100 µM (inactive).

What about the GI50 (A549) of the same compound?
The GI50 was 33.3 µM (inactive).

What about the GI50 (SF-539) of the same compound?
The GI50 was 21.2 µM (inactive).

What about the GI50 (CCRF-CEM) of the same compound?
The GI50 was 5.81 µM (inactive).

What about the GI50 (OVCAR-5) of the same compound?
Its GI50 is 40.8 µM (inactive).

And the GI50 (TK-10)?
The GI50 was 25 µM (inactive).

And the GI50 (NCI-H23)?
Its GI50 is 23.9 µM (inactive).

And the GI50 (DMS-273)?
Its GI50 is 16.4 µM (inactive).

And the GI50 (786-0)?
Its GI50 is 21.7 µM (inactive).

What about the GI50 (NCI-H522) of the same compound?
The GI50 was 1.49 µM (inactive).

What about the GI50 (HOP-18) of the same compound?
Its GI50 is 17.7 µM (inactive).

And the GI50 (CAKI-1)?
Its GI50 is 18.9 µM (inactive).

What about the GI50 (UACC-62) of the same compound?
The GI50 was 10 µM (inactive).

What about the GI50 (A498) of the same compound?
Its GI50 is 36.2 µM (inactive).

What about the GI50 (Malme-3M) of the same compound?
Its GI50 is 16.3 µM (inactive).

What about the GI50 (DMS-114) of the same compound?
The GI50 was 2.39 µM (inactive).

What about the GI50 (UACC-257) of the same compound?
Its GI50 is 26.7 µM (inactive).

And the GI50 (SK-MEL-5)?
Its GI50 is 4.78 µM (inactive).

What about the GI50 (SF-295) of the same compound?
The GI50 was 29.8 µM (inactive).

And the GI50 (M19-MEL)?
The GI50 was 10.7 µM (inactive).

What about the GI50 (IGROV-1) of the same compound?
The GI50 was 17.9 µM (inactive).

And the GI50 (M14)?
The GI50 was 20.6 µM (inactive).

What about the GI50 (HCT-15) of the same compound?
The GI50 was 17.5 µM.

What about the GI50 (U-251) of the same compound?
The GI50 was 14.7 µM (inactive).

And the GI50 (SK-OV-3)?
Its GI50 is 25.2 µM (inactive).

What about the GI50 (ACHN) of the same compound?
The GI50 was 29.8 µM (inactive).

And the GI50 (UO-31)?
Its GI50 is 15.5 µM (inactive).

What about the GI50 (XF498) of the same compound?
Its GI50 is 5.66 µM (inactive).

What about the GI50 (RXF 393) of the same compound?
The GI50 was 25.5 µM (inactive).

What about the GI50 (NCI-H226) of the same compound?
Its GI50 is > 100 µM (inactive).

And the GI50 (K562)?
Its GI50 is 18.3 µM (inactive).

What about the GI50 (RXF 631) of the same compound?
Its GI50 is 3.8 µM (inactive).

Which results are given for `COc1cc([C@@H]2c3cc4c(cc3[C@@H](NC(=O)c3ccc([N+](=O)[O-])cc3)C3COC(=O)[C@@H]32)OCO4)cc(OC)c1O` (stereo partly drawn)?
GI50 (HL-60): 0.0432 µM (active); GI50 (LOX IMVI): 0.318 µM (active); GI50 (HCC 2998): 1.22 µM (inactive); GI50 (HOP-62): 0.128 µM (active); GI50 (EKVX): 0.975 µM (active); GI50 (RPMI-8226): 0.256 µM (active); GI50 (KM12): 1.08 µM (active); GI50 (SK-MEL-28): 1.97 µM (inactive); GI50 (SNB-75): 0.809 µM (active); GI50 (OVCAR-3): 1.76 µM (inactive); GI50 (KM-20L2): 0.615 µM (active); GI50 (DLD-1): 1.38 µM (inactive); GI50 (SW-620): 0.147 µM (active); GI50 (OVCAR-4): 8.04 µM (inactive); GI50 (COLO 205): 2.13 µM (inactive); GI50 (SNB-19): 0.315 µM (active); GI50 (SNB-78): 1.92 µM (inactive); GI50 (SF-268): 1.6 µM (inactive); GI50 (MOLT-4): < 0.01 µM (active); GI50 (LXFL 529): 3.13 µM (inactive); GI50 (NCI-H460): < 0.01 µM (active); GI50 (OVCAR-8): 0.923 µM (active); GI50 (SK-MEL-2): 2.83 µM (inactive); GI50 (HCT-116): 0.678 µM (active); GI50 (SN12C): 0.215 µM (active); GI50 (A549): 0.0189 µM (active); GI50 (SF-539): 0.275 µM (active); GI50 (CCRF-CEM): 0.124 µM (active); GI50 (OVCAR-5): 1.87 µM (inactive); GI50 (TK-10): 2.03 µM (inactive); GI50 (NCI-H23): 0.258 µM (active); GI50 (DMS-273): 0.111 µM (active); GI50 (786-0): 0.242 µM (active); GI50 (HOP-92): 0.7 µM (active); GI50 (NCI-H522): 0.508 µM (active); GI50 (HT-29): 1.58 µM (inactive); GI50 (HOP-18): 67.8 µM (inactive); GI50 (CAKI-1): 0.569 µM (active); GI50 (UACC-62): 0.241 µM (active); GI50 (A498): 1.28 µM (inactive); GI50 (Malme-3M): 0.817 µM (active); GI50 (DMS-114): 0.31 µM (active); GI50 (UACC-257): 3.16 µM (inactive); GI50 (SK-MEL-5): 0.361 µM (active); GI50 (SF-295): 0.249 µM (active); GI50 (M19-MEL): 1.25 µM (inactive); GI50 (IGROV-1): 0.261 µM (active); GI50 (M14): 0.653 µM (active); GI50 (HCT-15): 1.57 µM; GI50 (U-251): 0.108 µM (active); GI50 (SK-OV-3): 0.334 µM (active); GI50 (ACHN): 0.194 µM (active); GI50 (UO-31): 2.63 µM (inactive); GI50 (XF498): 0.166 µM (active); GI50 (RXF 393): 2.55 µM (inactive); GI50 (NCI-H226): 0.104 µM (active); GI50 (K562): 0.889 µM (active); GI50 (RXF 631): 1.02 µM (active)
